Source: patent US11452702B2, “Compositions comprising amino acids for use in the treatment of mitochondrial dysfunction-related diseases” (PROFESSIONAL DIETETICS INTERNATIONAL S.R.L., priority 2017, dated 2022)

Tested on: HL-1 cardiomyocytes
Assay: Oxygen consumption (Clark-type oxygen electrode) in HL-1 cardiomyocytes
Type: cell-based, Mus musculus
Conditions: HL-1 cells, 48 hr treatment, normalized to protein content; FIG. 5
Description: Oxygen consumption in HL-1 cardiomyocytes treated with amino acid based compositions or DETA-NO for 48 hr. ****p<0.001 vs. untreated cell; ####p<0.001 vs. BCAAem and B2.
An amount of 1 ml of HL-1 cardiomyocytes treated with the compositions shown in Table 1 was re-suspended in Hank's balanced salt solution (Sigma) and spun down to pellet cells. A number of HL-1 cells was also supplemented with a nitic oxide (NO) donor, specifically with diethylenetriamine-NO also called DETA-NO (Sigma-Aldrich, Milan, Italy), as positive control.
Then, cells were re-suspended in a respiration buffer (0.3 M mannitol, 10 mM KCl, 5 mM MgCl2, 10 mM K2PO4, pH 7.4) at a density of 3.0×10^6/ml.
Samples were analyzed at 37° C. in a gas-tight vessel equipped with a Clark-type oxygen electrode (Rank Brothers Ltd.) connected to a chart recorder.
The oxygen electrode was calibrated assuming the concentration of oxygen in the incubation medium as 200 μmol/l at 37° C.
Oxygen consumption was assessed with continuous mixing for about ten minutes. The slope of the trace recorder was then used to calculate oxygen consumption. Oxygen content may vary depending on the amount of cells. Thus, protein content, which directly correlates with cell content, has been used to normalize the oxygen consumption in cell samples. Protein content was determined by using the bicinchoninic acid protein (BCA) assay.

## NCCN(CCN)/[N+]([O-])=N/O [DETA-NO, diethylenetriamine-NO]
  oxygen consumption: rise
